Test results published in US9376700B2, “Methods of modifying N-termini of a peptide or protein using transferases” (The Trustees of the University of Pennsylvania, priority 2012, dated 2016).

Experiments:
Assay type in all cases: biochemical
[1] = target: T1, E. coli aminoacyl transferase (AaT) (Escherichia coli, UniProt P0A8P1); assay: LysAlaAcm ligation assay: AaT-catalyzed transfer from aminoacyl adenosine donor to LysAlaAcm, HPLC at 325 nm; set-up: made in house; host or cells: E. coli BL21-Gold (DE3), plasmid pEG6, Ni-NTA purified; settings: for Ligated Product Yield (%): 4 h; for Transfer to LysAlaAcm by AaT (in words): reactions analyzed after 4 h
Protocol: Each ligation reaction, 125 μL total volume, contained the following reagents: aminoacyl adenosine donor (1 mM), recombinant His10-tagged E. coli aminoacyl transferase (2.26 μM), and LysAlaAcm (100 μM) in the AaT Ligation Buffer (50 mM HEPES pH 8.0, 150 mm KCl, 10 mM MgCl2). The reaction mixtures were incubated at 37° C. for four hours and quenched with 1% acetic acid. The proteins were extracted from the reactions via acetone precipitation. The reactions were precipitated using 4× reaction volume of acetone and cooled at −20° C. for 1 h. Next, the reactions were centrifuged at 13,200 rpm at 4° C. for 20 min to separate the reaction from precipitated protein. The supernatant was transferred to fresh 1.5 mL centrifuge tubes and allowed for acetone evaporation overnight at room temperature. After acetone evaporation, the supernatant was dried in a Speedvac (Savant, Thermo Scientific, Fisher Inc.) for 30 min to remove residual acetone. The resulting reaction volume was dissolved up to 1.2 mL using Milli-Q water and analyzed by HPLC (gradient below) to determine ligation yield by integration of separated peak intensities monitored at 325 nm. Collected HPLC fractions were characterized through MALDI MS analysis. […] Reactions using Phe-pdCpA as donor were carried out in an identical fashion (Ellman, et al., 1991, Methods Enzymol. 202:301-336).
All HPLC analyses of LysAlaAcm ligations were monitored on an Agilent HPLC using a Waters C18 column (Milford, Mass.).
All HPLC analyses of LysAlaAcm ligations were monitored as described elsewhere herein (Gradient 1).
(§1) The extent of transfer was evaluated by HPLC analysis of reactions with adenosyl donor, AaT or BpT, and an aminocoumarin-labeled reporter peptide (for AaT, LysAlaAcm was used as previously described by Tirrell and co-workers; for BpT, AspAlaAcm was used in an analogous fashion) (Connor et al., 2008, ChemBioChem 9:366-369). Monitoring LysAlaAcm or AspAlaAcm acylation in crude reaction mixtures using absorbance at 325 nm conveniently eliminates background due to other proteins and nucleic acids, although some non-natural amino acids such as naphthylalanine (Nap) and methoxycoumarinylalanine (Mcm) also absorb in this range.
To evaluate substrate scope, reactions were analyzed after 4 h, when transfer should be complete for the fully enzymatic reaction with Phe tRNA synthetase (Connor et al., 2008, ChemBioChem 9:366-369).

V. vulnificus BpT = assay: AspAlaAcm ligation assay: BpT-catalyzed transfer from adenosyl donor to AspAlaAcm; settings: single addition of donor, 100 μM AspAlaAcm, 2.26 μM BpT, standard BpT-catalyzed transfer conditions
Protocol: Ligation test reactions with V. vulnificus Bpt were conducted in a manner identical to the AaT LysAlaAcm ligation assay with the following exceptions, 2.26 μM BpT was used rather than 2.26 μM AaT, 100 μM AspAlaAcm was used rather than 100 μM LysAlaAcm, and BpT Ligation Buffer (50 mM HEPES, pH 8, 150 mM KO, 10 mM MgCl2) was used rather than AaT Ligation Buffer.
as §1

[2] = target: T1, E. coli aminoacyl transferase (AaT); assay: A/AMP/ATP/pdCpA inhibition studies of ligation with Phe donor 4a; set-up: made in house; host or cells: E. coli BL21-Gold (DE3), plasmid pEG6, Ni-NTA purified; settings: tested at 1 mM, 2.5 mM and 5 mM with Phe donor 4a
Protocol: Each ligation reaction was performed as described elsewhere herein.
To better understand limitations on the yield from AaT reactions, the possibilities of inhibition by hydrolyzed substrate or aminoacylated product were assessed. Since the acyl adenosine donor substrate is not regenerated during the reaction (unlike the aaRS/tRNA/AaT reaction), it was hypothesized that the adenosine byproduct might inhibit further acylation by binding to AaT. To investigate this possibility, adenosine was added to the reaction at varying concentrations and monitored the reaction timecourse by fluorescence spectroscopy and by HPLC.

[3] = single addition of 1 mM donor, 100 μM LysAlaAcm, 2.26 μM AaT, 37° C., no additive

T1 sequence (P0A8P1 whole entry): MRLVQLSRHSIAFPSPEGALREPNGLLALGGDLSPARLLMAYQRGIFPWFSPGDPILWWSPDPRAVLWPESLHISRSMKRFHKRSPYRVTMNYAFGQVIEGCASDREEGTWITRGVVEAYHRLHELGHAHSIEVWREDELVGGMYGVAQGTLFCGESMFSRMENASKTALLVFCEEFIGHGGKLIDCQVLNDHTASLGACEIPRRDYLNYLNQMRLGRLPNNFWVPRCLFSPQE

CSCC[C@H](N)C(=O)O[C@@H]1[C@H](O)[C@@H](CO)O[C@H]1n1cnc2c(N)ncnc21 [4j, (S)-(2R,3R,4R,5R)-2-(6-amino-9H-purin-9-yl)-4-hydroxy-5-(hydroxymethyl)tetrahydrofuran-3-yl 2-amino-4-(methylthio)butanoate]
Ligated Product Yield (%) [1, 3]: 21.9%

CSSC[C@H](N)C(=O)O[C@@H]1[C@H](O)[C@@H](CO)O[C@H]1n1cnc2c(N)ncnc21 [4k, (R)-(2R,3R,4R,5R)-2-(6-amino-9H-purin-9-yl)-4-hydroxy-5-(hydroxymethyl)tetrahydrofuran-3-yl 2-amino-3-(methyldisulfanyl)propanoate]
Ligated Product Yield (%) [1, 3]: 20.1%

Nc1ncnc2c1ncn2[C@@H]1O[C@H](CO)[C@@H](O)[C@H]1OC(=O)[C@@H](N)Cc1ccc(C(=O)c2ccccc2)cc1 [4i, (S)-(2R,3R,4R,5R)-2-(6-amino-9H-purin-9-yl)-4-hydroxy-5-(hydroxymethyl)tetrahydrofuran-3-yl 2-amino-3-(4-benzoylphenyl)propanoate]
Transfer to LysAlaAcm by AaT (in words) [1]: poor substrate | Ligated Product Yield (%) [1, 3]: 9.2 ± 0.3%

CC(=O)N[C@@H](Cc1ccccc1)C(=O)O[C@@H]1[C@H](O)[C@@H](CO)O[C@H]1n1cnc2c(N)ncnc21 [4f, (S)-(2R,3R,4R,5R)-2-(6-amino-9H-purin-9-yl)-4-hydroxy-5-(hydroxymethyl)tetrahydrofuran-3-yl 2-acetamido-3-phenylpropanoate]
Transfer to LysAlaAcm by AaT (in words) [1]: poor substrates | Ligated Product Yield (%) [1, 3]: 5f not observed

[N-]=[N+]=N[C@@H](Cc1ccccc1)C(=O)O[C@@H]1[C@H](O)[C@@H](CO)O[C@H]1n1cnc2c(N)ncnc21 [4g, (S)-(2R,3R,4R,5R)-2-(6-amino-9H-purin-9-yl)-4-hydroxy-5-(hydroxymethyl)tetrahydrofuran-3-yl 2-azido-3-phenylpropanoate]
Transfer to LysAlaAcm by AaT (in words) [1]: poor substrates | Ligated Product Yield (%) [1, 3]: 5g not observed^c

CC(C)C[C@H](N)C(=O)O[C@@H]1[C@H](O)[C@@H](CO)O[C@H]1n1cnc2c(N)ncnc21 [4b, (S)-(2R,3R,4R,5R)-2-(6-amino-9H-purin-9-yl)-4-hydroxy-5-(hydroxymethyl)tetrahydrofuran-3-yl 2-amino-4-methylpentanoate]
Ligated Product Yield (%) (V. vulnificus BpT): 5% | Transfer to LysAlaAcm by AaT (in words) [1]: transferred efficiently | Ligated Product Yield (%) [1, 3]: 80.4 ± 0.9%

COc1ccc2c(C[C@H](N)C(=O)O[C@@H]3[C@H](O)[C@@H](CO)O[C@H]3n3cnc4c(N)ncnc43)cc(=O)oc2c1 [4h, (S)-(2R,3R,4R,5R)-2-(6-amino-9H-purin-9-yl)-4-hydroxy-5-(hydroxymethyl)tetrahydrofuran-3-yl 2-amino-3-(7-methoxy-2-oxo-2H-chromen-4-yl)propanoate]
Transfer to LysAlaAcm by AaT (in words) [1]: too large | Ligated Product Yield (%) [1, 3]: 5h not observed

CN[C@@H](Cc1ccccc1)C(=O)O[C@@H]1[C@H](O)[C@@H](CO)O[C@H]1n1cnc2c(N)ncnc21 [4e, (S)-(2R,3R,4R,5R)-2-(6-amino-9H-purin-9-yl)-4-hydroxy-5-(hydroxymethyl)tetrahydrofuran-3-yl 2-(methylamino)-3-phenylpropanoate]
Transfer to LysAlaAcm by AaT (in words) [1]: transferred, albeit with low yield | Ligated Product Yield (%) [1, 3]: 0.6 ± 0.1%

CSSCC[C@H](N)C(=O)O[C@@H]1[C@H](O)[C@@H](CO)O[C@H]1n1cnc2c(N)ncnc21 [4n, (S)-(2R,3R,4R,5R)-2-(6-amino-9H-purin-9-yl)-4-hydroxy-5-(hydroxymethyl)tetrahydrofuran-3-yl 2-amino-4-(methyldisulfanyl)butanoate]
Ligated Product Yield (%) [1, 3]: 27.8%

PheLysAlaAcm
Product inhibition of NapLysAlaAcm (5d) production from Nap-A (4d) ([1]; 100 μM (1 equiv) added, standard 4 h transfer assay): did not significantly inhibit

CC(C)SSC[C@H](N)C(=O)O[C@@H]1[C@H](O)[C@@H](CO)O[C@H]1n1cnc2c(N)ncnc21 [4l, (R)-(2R,3R,4R,5R)-2-(6-amino-9H-purin-9-yl)-4-hydroxy-5-(hydroxymethyl)tetrahydrofuran-3-yl 2-amino-3-(isopropyldisulfanyl)propanoate]
Ligated Product Yield (%) (V. vulnificus BpT): 20% | Ligated Product Yield (%) [1, 3]: 42.3%

Nc1ncnc2c1ncn2[C@@H]1O[C@H](CO)[C@@H](O)[C@H]1OC(=O)[C@@H](N)Cc1ccc2ccccc2c1 [4d, (S)-(2R,3R,4R,5R)-2-(6-amino-9H-purin-9-yl)-4-hydroxy-5-(hydroxymethyl)tetrahydrofuran-3-yl 2-amino-3-(naphthalen-2-yl)propanoate]
Ligated Product Yield (%) [1, 3]: 95.4 ± 0.4% | Ligated Product Yield (%) ([1]; single addition of donor, additive 100 μM PheLysAlaAcm): 93.8 ± 0.3%

Nc1ncnc2c1ncn2[C@@H]1O[C@H](COP(=O)(O)OP(=O)(O)OP(=O)(O)O)[C@@H](O)[C@H]1O [ATP, adenosine triphosphate]
Inhibition of the reaction, comparison of adenosine compounds [2]: inhibited the reaction
